Test results from patent US20230190755A1, “Topical formulations of PI3K-delta inhibitors” (Incyte Corporation, priority 2021, published 2023).
Where a name gives a salt, the structure may show the parent alone.

Columns and labels:
PI3Kβ = biological target: T1, PI3Kβ (Homo sapiens, UniProt P42338); assay: PI3K enzyme assay of Example 7 ([γ-33P]ATP filter plate); assay type: biochemical
T1 construct: purchased Millipore (Bedford, Mass.)
Procedure: (§1) Materials: Lipid kinase substrate, phosphoinositol-4,5-bisphosphate (PIP2), are purchased from Echelon Biosciences (Salt Lake City, Utah). PI3K isoforms α, β, δ and γ are purchased from Millipore (Bedford, Mass.). ATP, MgCl2, DTT, EDTA, MOPS and CHAPS are purchased from Sigma-Aldrich (St. Louis, Mo.).
(§2) The kinase reaction are conducted in clear-bottom 96-well plate from Thermo Fisher Scientific in a final volume of 24 μL. Inhibitors are first diluted serially in DMSO and added to the plate wells before the addition of other reaction components. The final concentration of DMSO in the assay is 0.5%. The PI3K assays are carried out at room temperature in 20 mM MOPS, pH 6.7, 10 mM MgCl2, 5 mM DTT and CHAPS 0.03%. The reaction mixture is prepared containing 50 μM PIP2, kinase and varying concentration of inhibitors. Reactions are initiated by the addition of ATP containing 2.2 μCi [γ-^33P]ATP to a final concentration of 1000 μM. The final concentration of PI3K isoforms α, β, δ and γ in the assay were 1.3, 9.4, 2.9 and 10.8 nM, respectively. Reactions are incubated for 180 minutes and terminated by the addition of 100 μL of 1 M potassium phosphate pH 8.0, 30 mM EDTA quench buffer. A 100 μL aliquot of the reaction solution are then transferred to 96-well Millipore MultiScreen IP 0.45 μm PVDF filter plate (The filter plate is prewetted with 200 μL 100% ethanol, distilled water, and 1 M potassium phosphate pH 8.0, respectively). The filter plate is aspirated on a Millipore Manifold under vacuum and washed with 18×200 μL wash buffer containing 1 M potassium phosphate pH 8.0 and 1 mM ATP. After drying by aspiration and blotting, the plate is air dried in an incubator at 37° C. overnight. Packard TopCount adapter (Millipore) is then attached to the plate followed with addition of 120 μL Microscint 20 scintillation cocktail (Perkin Elmer) in each well. After the plate sealing, the radioactivity of the product is determined by scintillation counting on Topcount (Perkin-Elmer). IC50 determination is performed by fitting the curve of percent control activity versus the log of the inhibitor concentration using the GraphPad Prism 3.0 software.

PI3Kγ = biological target: T2, PI3Kγ (Homo sapiens, UniProt P48736); assay: as above; assay type: biochemical
T2 construct: purchased Millipore (Bedford, Mass.)
Procedure: as §1, §2

PI3Kδ = biological target: T3, PI3Kδ (Homo sapiens, UniProt O00329); assay: as above; assay type: biochemical
T3 construct: purchased Millipore (Bedford, Mass.)
Procedure: as §1, §2

PI3Kα = biological target: T4, PI3Kα (Homo sapiens, UniProt P42336); assay: as above; assay type: biochemical
T4 construct: purchased Millipore (Bedford, Mass.)
Procedure: as §1, §2

PI3Kδ (p110δ/p85α) = PI3Kδ (p110δ/p85α) (Homo sapiens, UniProt O00329); assay: PI3Kδ scintillation proximity assay (Example 8); assay type: biochemical; settings: 20 μM ATP, 4 nM PI3Kδ
Description: Lipid kinase substrate, D-myo-Phosphatidylinositol 4,5-bisphosphate (PtdIns(4,5)P2)D (+)-sn-1,2-di-O-octanoylglyceryl, 3-O-phospho linked (PIP2), CAS 204858-53-7, was purchased from Echelon Biosciences (Salt Lake City, Utah). PI3Kδ (p110δ/p85α) was purchased from Millipore (Bedford, Mass.). ATP, MgCl2, DTT, EDTA, MOPS and CHAPS were purchased from Sigma-Aldrich (St. Louis, Mo.). Wheat Germ Agglutinin (WGA) YSi SPA Scintillation Beads was purchased from GE healthcare life sciences (Piscataway, N.J.).
The kinase reaction was conducted in polystyrene 384-well matrix white plate from Thermo Fisher Scientific in a final volume of 25 μL. Inhibitors were first diluted serially in DMSO and added to the plate wells before the addition of other reaction components. The final concentration of DMSO in the assay was 0.5%. The PI3K assays were carried out at room temperature in 20 mM MOPS, pH 6.7, 10 mM MgCl2, 5 mM DTT and CHAPS 0.03%. […] ATP, 4 nM PI3Kδ. Reactions were incubated for 210 min and terminated by the addition of 40 μL SPA beads suspended in quench buffer: 150 mM potassium phosphate pH 8.0, 20% glycerol. 25 mM EDTA, 400 μM ATP. […] After the plate sealing, plates were shaken overnight at room temperature and centrifuged at 1800 rpm for 10 minutes, the radioactivity of the product was determined by scintillation counting on Topcount (Perkin-Elmer). […]

[1] = Free fraction by equilibrium dialysis, human plasma and homogenized human skin; assay type: in vitro ADME
Procedure: (§3) The concentration of Compound A was measured in the epidermis, dermis, and plasma 24 hours post application. Dermal concentrations in minipigs dosed with 1.0% w/w topical formulation were 8× higher compared with dermal concentrations in minipigs dosed with the 0.1% topical formulation. The epidermal concentration for 1.0% w/w topical formulation was 6× higher compared with the 0.1% w/w topical dose. The epidermal concentrations accounted for the combined drug levels in the stratum corneum and viable epidermis layers (i.e., skin samples were not tape stripped). Relatedly, the free fraction of Compound A in plasma and homogenized human skin was evaluated by equilibrium dialysis studies. The mean free fraction in human plasma and skin was […] respectively. In minipigs, the free fraction in plasma was measured at 3.1%.

IC90 value in the dermis = assay: IC90 value in the dermis
Procedure: Based on initial studies it is believed that topical administration of a strength of 0.01% may result in mean plasma concentration of approximately 1 nM at steady state.

[2] = Free fraction in plasma, minipig; assay type: in vitro ADME
Procedure: as §3

T1 sequence (P42338 whole entry): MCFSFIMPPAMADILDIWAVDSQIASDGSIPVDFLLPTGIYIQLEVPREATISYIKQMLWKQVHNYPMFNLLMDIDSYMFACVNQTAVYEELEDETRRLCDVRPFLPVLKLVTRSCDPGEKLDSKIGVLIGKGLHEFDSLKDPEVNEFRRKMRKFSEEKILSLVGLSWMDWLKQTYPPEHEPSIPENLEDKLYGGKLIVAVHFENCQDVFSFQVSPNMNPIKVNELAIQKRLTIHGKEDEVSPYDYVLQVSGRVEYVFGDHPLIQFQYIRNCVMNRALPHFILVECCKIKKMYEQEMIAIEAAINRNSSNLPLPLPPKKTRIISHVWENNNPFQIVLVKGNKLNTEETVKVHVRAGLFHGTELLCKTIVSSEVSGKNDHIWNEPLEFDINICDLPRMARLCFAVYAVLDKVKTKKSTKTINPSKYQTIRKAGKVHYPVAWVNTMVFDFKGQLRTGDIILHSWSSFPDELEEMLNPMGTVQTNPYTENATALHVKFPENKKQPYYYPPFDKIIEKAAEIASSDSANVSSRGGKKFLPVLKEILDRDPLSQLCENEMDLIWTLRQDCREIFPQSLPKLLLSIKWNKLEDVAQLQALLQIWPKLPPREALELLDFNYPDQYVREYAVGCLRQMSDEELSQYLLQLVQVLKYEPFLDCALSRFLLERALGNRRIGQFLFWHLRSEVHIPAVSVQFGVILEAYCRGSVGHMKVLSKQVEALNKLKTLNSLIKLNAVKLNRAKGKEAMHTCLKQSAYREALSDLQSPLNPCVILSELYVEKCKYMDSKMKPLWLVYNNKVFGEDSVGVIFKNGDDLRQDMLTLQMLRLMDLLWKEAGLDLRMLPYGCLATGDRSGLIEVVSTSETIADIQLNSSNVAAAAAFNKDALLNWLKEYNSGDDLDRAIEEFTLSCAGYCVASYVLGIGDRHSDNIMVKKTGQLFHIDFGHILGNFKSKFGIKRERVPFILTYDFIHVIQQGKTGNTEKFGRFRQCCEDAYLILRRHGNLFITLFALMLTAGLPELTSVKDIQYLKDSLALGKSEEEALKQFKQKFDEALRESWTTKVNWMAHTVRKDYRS
T1 sequence (P27986 whole entry partner): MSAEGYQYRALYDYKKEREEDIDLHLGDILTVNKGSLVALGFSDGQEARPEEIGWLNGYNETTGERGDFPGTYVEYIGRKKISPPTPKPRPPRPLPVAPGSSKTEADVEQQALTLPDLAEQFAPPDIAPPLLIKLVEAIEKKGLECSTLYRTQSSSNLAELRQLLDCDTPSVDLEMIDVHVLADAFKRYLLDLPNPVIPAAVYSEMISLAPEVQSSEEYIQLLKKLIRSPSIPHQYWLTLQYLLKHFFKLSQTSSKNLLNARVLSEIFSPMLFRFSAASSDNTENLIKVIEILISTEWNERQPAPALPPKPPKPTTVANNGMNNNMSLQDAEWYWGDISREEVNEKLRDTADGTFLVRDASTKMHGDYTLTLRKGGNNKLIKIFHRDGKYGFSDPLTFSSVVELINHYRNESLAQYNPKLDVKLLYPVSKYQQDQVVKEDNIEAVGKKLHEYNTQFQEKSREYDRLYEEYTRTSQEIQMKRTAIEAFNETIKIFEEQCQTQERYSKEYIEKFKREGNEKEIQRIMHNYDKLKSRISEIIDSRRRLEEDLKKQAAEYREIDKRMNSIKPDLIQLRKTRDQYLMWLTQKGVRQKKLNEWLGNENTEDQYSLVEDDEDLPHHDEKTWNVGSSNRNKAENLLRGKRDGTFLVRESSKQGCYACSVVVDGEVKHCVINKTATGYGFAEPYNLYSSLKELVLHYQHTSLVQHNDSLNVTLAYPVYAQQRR
T3 sequence (O00329 whole entry): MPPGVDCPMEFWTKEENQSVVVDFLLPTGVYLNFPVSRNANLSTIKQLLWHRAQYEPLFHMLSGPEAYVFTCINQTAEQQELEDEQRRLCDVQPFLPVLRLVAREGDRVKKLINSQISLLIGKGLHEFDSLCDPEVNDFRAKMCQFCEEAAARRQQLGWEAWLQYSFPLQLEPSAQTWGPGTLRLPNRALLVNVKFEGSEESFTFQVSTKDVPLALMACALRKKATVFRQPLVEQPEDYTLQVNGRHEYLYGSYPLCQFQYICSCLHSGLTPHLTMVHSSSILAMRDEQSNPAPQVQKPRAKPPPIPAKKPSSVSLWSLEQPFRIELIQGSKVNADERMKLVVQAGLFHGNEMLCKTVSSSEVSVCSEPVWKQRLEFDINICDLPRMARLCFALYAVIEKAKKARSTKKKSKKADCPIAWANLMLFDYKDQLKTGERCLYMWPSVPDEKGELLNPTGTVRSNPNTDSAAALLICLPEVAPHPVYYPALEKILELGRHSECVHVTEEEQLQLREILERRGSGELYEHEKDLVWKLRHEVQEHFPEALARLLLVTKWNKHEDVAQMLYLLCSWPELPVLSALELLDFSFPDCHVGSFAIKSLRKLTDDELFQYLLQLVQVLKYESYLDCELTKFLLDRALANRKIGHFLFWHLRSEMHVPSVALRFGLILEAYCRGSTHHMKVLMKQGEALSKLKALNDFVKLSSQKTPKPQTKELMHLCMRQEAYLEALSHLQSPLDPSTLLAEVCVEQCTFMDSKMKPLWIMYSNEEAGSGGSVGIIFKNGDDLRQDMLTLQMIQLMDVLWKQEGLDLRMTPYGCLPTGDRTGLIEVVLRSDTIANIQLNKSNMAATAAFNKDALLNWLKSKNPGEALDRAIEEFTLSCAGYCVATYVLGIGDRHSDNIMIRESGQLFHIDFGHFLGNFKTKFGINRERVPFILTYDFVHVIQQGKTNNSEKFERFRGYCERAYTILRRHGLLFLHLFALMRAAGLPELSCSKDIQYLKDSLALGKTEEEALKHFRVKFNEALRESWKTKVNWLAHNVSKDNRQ
T3 sequence (P27986 whole entry partner): as the sequence (P27986 whole entry partner) above
Sequence of PI3Kδ (p110δ/p85α) (O00329 whole entry): as the sequence (O00329 whole entry) above
Sequence of PI3Kδ (p110δ/p85α) (P27986 whole entry partner): as the sequence (P27986 whole entry partner) above
T2 sequence (P48736 whole entry): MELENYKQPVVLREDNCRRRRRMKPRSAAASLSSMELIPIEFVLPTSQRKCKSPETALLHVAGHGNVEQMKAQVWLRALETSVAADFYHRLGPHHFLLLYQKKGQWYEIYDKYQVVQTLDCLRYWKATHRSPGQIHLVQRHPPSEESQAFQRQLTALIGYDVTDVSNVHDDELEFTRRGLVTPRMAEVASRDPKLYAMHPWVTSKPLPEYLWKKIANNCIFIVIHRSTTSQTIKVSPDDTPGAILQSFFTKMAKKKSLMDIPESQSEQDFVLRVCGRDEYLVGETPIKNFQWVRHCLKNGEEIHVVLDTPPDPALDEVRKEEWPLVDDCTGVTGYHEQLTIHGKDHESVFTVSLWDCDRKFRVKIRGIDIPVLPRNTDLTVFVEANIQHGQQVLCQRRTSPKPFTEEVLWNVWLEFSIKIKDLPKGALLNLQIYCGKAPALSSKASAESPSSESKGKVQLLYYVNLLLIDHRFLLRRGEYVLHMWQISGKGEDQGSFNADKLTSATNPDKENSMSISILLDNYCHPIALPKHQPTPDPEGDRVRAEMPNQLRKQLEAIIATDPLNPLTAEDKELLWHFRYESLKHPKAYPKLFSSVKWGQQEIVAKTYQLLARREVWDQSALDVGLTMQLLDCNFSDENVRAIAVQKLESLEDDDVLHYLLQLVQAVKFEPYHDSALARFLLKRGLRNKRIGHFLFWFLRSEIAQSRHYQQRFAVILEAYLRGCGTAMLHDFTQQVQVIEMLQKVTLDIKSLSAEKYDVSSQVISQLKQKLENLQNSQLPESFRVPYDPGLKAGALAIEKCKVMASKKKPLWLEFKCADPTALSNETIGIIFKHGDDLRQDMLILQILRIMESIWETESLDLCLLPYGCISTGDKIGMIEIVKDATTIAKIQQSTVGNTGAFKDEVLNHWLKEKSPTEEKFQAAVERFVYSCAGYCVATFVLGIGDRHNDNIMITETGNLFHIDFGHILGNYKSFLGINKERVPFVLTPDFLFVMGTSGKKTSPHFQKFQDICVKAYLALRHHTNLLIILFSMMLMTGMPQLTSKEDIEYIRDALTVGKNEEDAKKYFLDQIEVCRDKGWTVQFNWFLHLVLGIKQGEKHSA

Structure (SMILES)	selectivity for PI3Kδ over PI3Kβ (PI3Kβ) [fold]	selectivity for PI3Kδ over PI3Kγ (PI3Kγ) [fold]	selectivity for PI3Kδ (in words) (PI3Kδ)	selectivity for PI3Kδ over PI3Kα (PI3Kα) [fold]	IC50 (PI3Kδ (p110δ/p85α)) [nM]	fraction unbound ([1]; homogenized skin, read-out: Mean free fraction in homogenized human skin)	fraction unbound ([1]; plasma, read-out: Mean free fraction in human plasma)	IC90 (IC90 value in the dermis) [nM]	fraction unbound [2]
CCOc1c([C@H](C)n2nc(C)c3c(N)ncnc32)cc(Cl)c(F)c1[C@@H]1CNC(=O)C1 [Compound A HCl, (R)-4-(3-((S)-1-(4-Amino-3-methyl-1H-pyrazolo[3,4-d]pyrimidin-1-yl)ethyl)-5-chloro-2-ethoxy-6-fluorophenyl)pyrrolidin-2-one Hydrochloric Acid Salt]	> 100	> 100	selective inhibitor for PI3Kδ	> 100					
CCOc1c([C@H](C)n2nc(C)c3c(N)ncnc32)cc(Cl)c(F)c1[C@@H]1CNC(=O)C1 [Compound A, (R)-4-(3-((S)-1-(4-amino-3-methyl-1H-pyrazolo[3,4-d]pyrimidin-1-yl)ethyl)-5-chloro-2-ethoxy-6-fluorophenyl)pyrrolidin-2-one]					< 10	0.33	0.074	~20	0.031
